Results taken from BindingDB's records for doi:10.1021/jm960078j (University of Arizona, 1996).

Experiment: Binding affinity towards Opioid receptor delta 1 was determined in guinea pig whole brain using [3H][4''-Cl-Phe4]-DPDPE as radioligand

Going from `CCCC[C@@H](C(=O)N[C@@H](CC(=O)O)C(=O)N[C@@H](Cc1ccccc1)C(N)=O)N(C)C(=O)[C@@H](NC(=O)CNC(=O)[C@@H](Cc1ccccc1)NC(=O)[C@H](Cc1ccc(O)cc1)NC(=O)[C@@H](N)CC(=O)O)[C@@H](C)c1c[nH]c2ccccc12` to `CCCC[C@@H](C(=O)N[C@@H](CC(=O)O)C(=O)N[C@@H](Cc1ccccc1)C(N)=O)N(C)C(=O)[C@H](NC(=O)CNC(=O)[C@@H](Cc1ccccc1)NC(=O)[C@H](Cc1ccc(O)cc1)NC(=O)[C@@H](N)CC(=O)O)[C@@H](C)c1c[nH]c2ccccc12`, the IC50 rises from 140 nM to 1050 nM (7.5-fold). The first is the more potent here.

Going from `CCCC[C@@H](C(=O)N[C@@H](CC(=O)O)C(=O)N[C@@H](Cc1ccccc1)C(N)=O)N(C)C(=O)[C@H](NC(=O)CNC(=O)[C@@H](Cc1ccccc1)NC(=O)[C@H](Cc1ccc(O)cc1)NC(=O)[C@@H](N)CC(=O)O)[C@H](C)c1c[nH]c2ccccc12` to `CCCC[C@@H](C(=O)N[C@@H](CC(=O)O)C(=O)N[C@@H](Cc1ccccc1)C(N)=O)N(C)C(=O)[C@H](Cc1c[nH]c2ccccc12)NC(=O)CNC(=O)[C@@H](Cc1ccccc1)NC(=O)[C@H](Cc1ccc(O)cc1)NC(=O)[C@@H](N)CC(=O)O` [(3S)-3-[(2S)-2-[(2S)-2-{2-[(2R)-2-[(2S)-2-[(3S)-3-amino-3-formamidopropanoic acid]-3-(4-hydroxyphenyl)propanamido]-3-phenylpropanamido]acetamido}-3-(1H-indol-3-yl)-N-methylpropanamido]hexanamido]-3-{[(1S)-1-carbamoyl-2-phenylethyl]carbamoyl}propanoic acid], the IC50 falls from 820 nM to 29 nM (28-fold).
